The results in this text go back to BindingDB's records for doi:10.1021/jm100394y (Amgen, 2010).

One may read the EC50 as the concentration at which the effect is half-maximal.

The experiment can be described thus: Inhibition of aurora B in human HeLa cells assessed as increase of >= 4N DNA level after 24 hrs by Hoechst staining.
Turning to `CNc1nccc(-c2cccnc2Oc2ccc(NC(=O)c3ccccc3Nc3ccc(F)cc3)cc2)n1` [2-(4-Fluorophenylamino)-N-(4-(3-(2-(methylamino)pyrimidin-4-yl)pyridin-2-yloxy)phenyl)benzamide], the concentration giving a half-maximal response (EC50) came out at 28 nM.

Consider `CNc1nccc(-c2cccnc2Oc2ccc(NC(=O)c3cccc(Cl)c3)cc2C)n1` [3-Chloro-N-(3-methyl-4-(3-(2-(methylamino)pyrimidin-4-yl)-pyridin-2-yloxy)phenyl)benzamide], for which the EC50 is more than 1200 nM.

With `CNc1nccc(-c2cccnc2Oc2ccc(Nc3nnc(-c4ccc(F)cc4)c4ccccc34)cc2)n1` [4-(4-Fluorophenyl)-N-(4-(3-(2-(methylamino)pyrimidin-4-yl)-pyridin-2-yloxy)phenyl)phthalazin-1-amine], the concentration for a half-maximal effect (EC50) was 24 nM.

Take `CNc1nccc(-c2cccnc2Oc2ccc(NC(=O)c3ccc(Cl)cc3)cc2C)n1` [4-Chloro-N-(3-methyl-4-(3-(2-(methylamino)pyrimidin-4-yl)-pyridin-2-yloxy)phenyl)benzamide]: the EC50 was more than 1200 nM.

For `CNc1nccc(-c2cccnc2Oc2ccc(NC(=O)c3cc(F)ccc3Nc3ccccc3)cc2)n1` [5-Fluoro-N-(4-(3-(2-(methylamino)pyrimidin-4-yl)pyridin-2-yloxy)phenyl)-2-(phenylamino)benzamide], the EC50 was determined as 20 nM.

On to `CNc1nccc(-c2cccnc2Oc2ccc(NC(=O)c3ccccc3Nc3ccccc3)c(C)c2)n1` [N-(2-Methyl-4-(3-(2-(methylamino)pyrimidin-4-yl)pyridin-2-yloxy)phenyl)-2-(phenylamino)benzamide], for which the half-maximal effective concentration (EC50) turned out to be 1450 nM.

For `CNc1nccc(-c2cccnc2Oc2ccc(NC(=O)c3ccccc3Nc3ccccc3)cc2C)n1` [N-(3-Methyl-4-(3-(2-(methylamino)pyrimidin-4-yl)pyridin-2-yloxy)phenyl)-2-(phenylamino)benzamide], the EC50 is 89 nM.

With `CNc1nccc(-c2cccnc2Oc2ccc(NC(=O)c3ccccc3Oc3ccccc3)cc2C)n1` [N-(3-Methyl-4-(3-(2-(methylamino)pyrimidin-4-yl)pyridin-2-yloxy)phenyl)-2-phenoxybenzamide], the EC50 was more than 1200 nM.

In the case of `CNc1nccc(-c2cccnc2Oc2ccc(NC(=O)c3cccc(C(F)(F)F)c3)cc2C)n1` [N-(3-Methyl-4-(3-(2-(methylamino)pyrimidin-4-yl)pyridin-2-yloxy)phenyl)-3-(trifluoromethyl)benzamide], the EC50 was more than 1200 nM.

As for `CNc1nccc(-c2cccnc2Oc2ccc(NC(=O)c3cccc(Oc4ccccc4)c3)cc2C)n1` [N-(3-Methyl-4-(3-(2-(methylamino)pyrimidin-4-yl)pyridin-2-yloxy)phenyl)-3-phenoxybenzamide], the EC50 was more than 1200 nM.

As to `CNc1nccc(-c2cccnc2Oc2ccc(NC(=O)c3ccccc3Nc3ccccc3)cc2)n1` [N-(4-(3-(2-(Methylamino)pyrimidin-4-yl)pyridin-2-yloxy)phenyl)-2-(phenylamino)benzamide], the EC50 is 15 nM.

Regarding `CNc1nccc(-c2cccnc2Oc2ccc(Nc3nnc(-c4ccccc4)c4ccccc34)cc2)n1` [N-(4-(3-(2-(Methylamino)pyrimidin-4-yl)pyridin-2-yloxy)phenyl)-4-phenylphthalazin-1-amine], the EC50 was determined as 15 nM.
